Non-standard residues stand in square brackets, D forms with d. Residues, ends and D or L forms follow the SMILES beside them. Met(O2) = CS(=O)(=O)CC[C@H](N)C(=O)O

From patent US20240254164A1, “PURIFICATION OF SPECIFIC TRIPEPTIDE BY ACIDIFICATION” (DSM IP Assets B.V., priority 2021, published 2024) come the findings set out here.

Assay type in all cases: physicochemical
Data set [1] can be described thus: Precipitation of different acidified tripeptides from aqueous solution heated to reflux and cooled to room temperature. Particulars: 0.5 mol/L aqueous solution, reflux, cooled to room temperature. An excerpt: Aqueous solutions of different tripeptides acidified to the pH as given in table 2 were heated to reflux temperature. The clear solutions (0.5 mol/L) have been cooled to room temperature.
The fine particles of example 3 formed at the bottom of the vessel have been collected by a filtration over a glass frit filter.

Data set [2] can be described thus: Precipitation of acidified tripeptide dissolved in water at reflux and cooled to 4° C. (Example 2). The following applies: pH 1.9; 67.3 g in 500 ml water at reflux, cooled to 4° C. within 2.5 hours, kept 30 minutes. Here is the method: 67.3 g acidified Ac-Met(O2)-Val-Val-OH was dissolved in 500 ml water (pH 1.9 of solution) at reflux. The solution was cooled to 4° C. within 2.5 hours and kept at 4° C. during 30 minutes.

Data set [3] in a line: Precipitation of the tripeptide from aqueous LiOH solution on acidification with HCl and cooling to 4° C. Particulars: 54 mg in 0.2 ml 0.1 M aqueous LiOH, pH lowered from 9 with 2M HCl, cooled to 4° C. Here is the method:
54 mg Ac-Met(O2)-Val-Val-OH have been dissolved in 0.2 ml 0.1 M aqueous LiOH. A clear solution is formed. The pH was lowered from 9 to the pH as indicated in table 1 by adding 2M HCl and cooled to a temperature of 4° C.
In example 1, a precipitation the tripeptide in fine particles at the bottom of the vessel was observed is formed which was separated by filtration over a glass frit filter.

Data set [4] is described as follows: Susceptibility against oxidation by atmospheric oxygen. The following applies: compared to the corresponding tripeptide Ac-Met-Val-Val-OH.

Take `CC(=O)N[C@@H](CO)C(=O)N1CCC[C@H]1C(=O)N[C@@H](C)C(=O)O` [Ac-Ser-Pro-Ala-OH] (Ac-Ser-Pro-Ala-OH): the Observation after cooling result in data set [1] (pH 0.9) was “No particles formed”.

For the molecule `CC(=O)N[C@@H](CCC(N)=O)C(=O)N1CCC[C@H]1C(=O)N[C@@H](C)C(=O)O` [Ac-Gln-Pro-Ala-OH] (Ac-Gln-Pro-Ala-OH), in data set [1] (pH 1.5), the Observation after cooling entry was “No particles formed”.

For the molecule `CC(=O)N[C@@H](CCS(C)(=O)=O)C(=O)N[C@H](C(=O)N[C@H](C(=O)O)C(C)C)C(C)C` [Ac-Met(O2)-Val-Val-OH] (Ac-[Met(O2)]-Val-Val-OH), the Observation after cooling entry in data set [1] (pH 2) was “Fine particles formed”; in data set [2] it was “fine particles formed”; in data set [3] (pH 2), “Fine particles formed”; in data set [3] (pH 3), “Opaque solution. No particles formed”. In data set [4], the “Susceptibility against oxidation by atmospheric oxygen” value was “significant lower susceptibility against oxidation”.
